Data taken from patent US20240165209A1, “PLACENTAL ALKALINE PHOSPHATASE FOR REDUCING THE LOSS OF RED BLOOD CELLS, WHITE BLOOD CELLS, AND PLATELETS IN CHEMOTHERAPY TREATED CANCER PATIENTS” (ZOLTAN LABORATORIES, LLC, priority 2021, published 2024).

Legend:
bone marrow MSCs = test: DNA synthesis ([3H]thymidine incorporation) in MSCs; assay type: cell-based, human; details: 20 hours, no PLAP
From the text: For the experiment, bone marrow aspirates were taken from normal human adult donors after informed consent. For the preparation of bone marrow MSCs, essentially a widely used technique was used as described earlier by others [Pittenger, M. F., Mackay, A. M., Beck, S. C., et al. (1999) Multilineage potential of adult human mesenchymal stem cells. Science 284, 143-147]. Briefly, nucleated cells were isolated with a pre-prepared commercial density gradient (Lymphoprep, Nycomed, Pharma, Oslo, Norway) and re-suspended in Dulbecco's modified Eagle's medium (DMEM) (GIBCO, Grand Island, NY) supplemented with 10% fetal calf serum (FCS), 50 U/ml of penicillin, and 50 μg/ml of streptomycin (GIBCO). All nucleated cells were plated in 25-cm^2 flasks (BD Falcon, Bedford, MA) at 37° C. in humidified atmosphere containing 5% CO2. After 24 hours, non-adherent cells were removed and cryopreserved in liquid nitrogen until use. The remaining adherent cells were thoroughly washed with Hanks balanced salt solution (HBSS) (GIBCO). Fresh complete culture medium was added and replaced every 3 or 4 days (twice a week). When cells grew to about 80% confluence, they were suspended and harvested by incubating with a ready-made solution containing 0.25% trypsin and 1 mM EDTA (Sigma-Aldrich, St. Louis, MO) for 5 minutes at 37° C.; this cell suspension is designated as passage 1. These cells were further expanded with 1:3-1:5 splitting in 175-cm^2 flasks (BD Falcon). For the determination of DNA synthesis, cells were divided into 12-well plates in the complete medium and let the cells grow to about 60% confluence. After changing the spent medium for fresh complete medium (i.e., containing 10% fetal calf serum), cells were treated for 20 hours with 20-100 μM ATP and/or 200 nM PLAP as well as 50-200 μM Cyp in the absence or presence of 200 nM PLAP. For labeling newly formed DNA, cells received 1,130,000 d.p.m. [^3H] thymidine for the last 4 hours of the treatment period. DNA synthesis was determined as described earlier [She, Q.-B., Mukherjee, J. J., Huang, J.-S., Crilly, K. S. and Kiss, Z. (2000) Growth factor-like effects of placental alkaline phosphatase in human fetus and mouse embryo fibroblasts. FEBS Lett. 469, 163-167]. The data is expressed as d.p.m. [^3H] thymidine incorporated into DNA/well (n=3).

[1] = tested on: granulocyte-macrophage colony-forming units (CFU-GM); test: Granulocyte-macrophage colony-forming units (CFU-GM), semisolid colony-forming cell assay, Cyp treated T47D tumor bearing mice; assay type: in vivo, mouse; details: for CFU-GM/10^5 nucleated BM cells: Cyp 120 mg/kg i.p. daily x6, PLAP 7.5 mg/kg s.c. days 0, 2, 4, 6; for CFU-GM per femur: calculated: nucleated cells in the femur x CFU-GM
Protocol: Again, first-generation hybrid BDF1 (C57BL/6 female×DBA/2 male) 10 weeks old adult female mice bearing T47D tumors (2.6-3.3 cm^3) were used. In the first group, mice received no treatment. In the second and third groups, mice were administered 120 mg/kg of Cyp intraperitoneally once a day for 6 consecutive days. In a third group, mice were also administered 7.5 mg/kg of PALP subcutaneously on days 0, 2, 4 and 6. On the days indicated in TABLE 4, the animals were killed, then the bone marrow was flushed from the femurs with Iscove's modified Dulbecco's medium (Gibco BRL, Gaithersburg, MD, USA). This was followed by standard erythrocyte lysis and then by counting the number of nucleated bone marrow (BM) cells per femur using a hemocytometer.
To measure the formation of the granulocyte-macrophage colony-forming units (CFU-GM), a semisolid colony-forming cell assay was used. Equal numbers of nucleated bone marrow cells (isolated on days as indicated above) were plated in 35-mm Petri dishes (Costar, Cambridge, MA, USA) in Iscove's modified Dulbecco's medium supplemented with 1% methylcellulose, 30% horse serum (Gibco), 10% WEHI-3B conditioned medium as a source of growth factors, 4 mM L-glutamine, 0.25 mM α-thioglycerol (Gibco), 1% deionized bovine serum albumin (Sigma), and antibiotics (Gibco). Cells were cultured at 37° C. in 5% CO2/95% air atmosphere. CFU-GM was counted on day 9. Three parallel plates were used for each 3 animals (9 plates for one number). Colonies containing at least 50 cells were counted which is a generally accepted value in the literature. In TABLE 4, “CFU-GM per femur” is a calculated value derived from multiplying the number of nucleated cells in the femur with the number of CFU-GM; this number gives the number of CFU-GM in one femur. Each value is expressed as the mean±standard deviation of 9 plates (derived from 3 animals).

[2] = tested on: mouse bone marrow-derived hematopoietic stem cells (HSCs); details: 200 μM Cyp, 3 days, absence of PLAP
Protocol: Bone marrow was harvested by flushing bones from female C57/BL/6 mice in Fischer medium (Thermo Fisher Scientific; catalogue no. 21475025) containing 20% horse serum (Hyclone, Logan, UT), 100 Unit/ml penicillin, […] streptomycin (Gibco, BRL), 0.015 fungizone (Gibco, BRL), and 0.1 μM hydrocortisone sodium succinate (SynoPharm; Hamburg, Germany). Pooled stem cells were seeded into 25 cm 3 flasks (10 ml cell suspension) and after 3 days of incubation at 33° C. in 5% CO2 in air in the absence of PLAP, they were plated into 12-well plates and were incubated in the absence (n=8) or presence of 50 μg/ml PLAP (n=8) for additional 3 days.
In a follow up experiment with hematopoietic stem cells, the same incubation medium in 12-well plates contained either no other addition (n=8) or contained 200 μM Cyp without (n=8) or with 50 μg/ml PLAP (n=8) for 3 days.

[3] = tested on: blood cells (RBCs, WBCs, platelets) of T47D tumor bearing mice; test: Experiment 2: blood cell counts in Cyp-treated T47D tumor bearing mice, last sample day 10; assay type: in vivo, mouse; details: Cyp 120 mg/kg, PLAP 7.5 mg/kg days 0, 2, 4, 6
Protocol: In the two experiments performed, first-generation hybrid BDF1 (C57BL/6 female×DBA/2 male) 10 weeks old adult female mice bearing T47D tumors (2.6-3.3 cm 3 volume) were used.
The second experiment was performed with T47D tumor bearing mice similarly to the one described to TABLE 2, except that one group of Cyp (120 mg/kg) treated mice were co-treated treated with PLAP (7.5 mg/kg) on days 0, 2, 4, and 6. […] The data shown is the average of 6 independent determinations±S.D.

Q: What does the source list for `O.O=P1(N(CCCl)CCCl)NCCCO1` (centres unmarked) [Cyp, 2-[Bis (2-chloroethyl)amino] tetrahydro-2H-1,3,2-oxazaphosphorine 2-oxide monohydrate]?
A: d.p.m. [^3H] thymidine incorporated into DNA/well (bone marrow MSCs; Cyp 50 μM): 51,684 ± 2.772 d.p.m.; d.p.m. [^3H] thymidine incorporated into DNA/well (bone marrow MSCs; Cyp 200 μM): 32,536 ± 3,280 d.p.m.; CFU-GM/10^5 nucleated BM cells ([1]; BM isolated day 0): 78.1 ± 6.1; CFU-GM/10^5 nucleated BM cells ([1]; BM isolated day 3): 34.5 ± 7.2; CFU-GM/10^5 nucleated BM cells ([1]; BM isolated day 6): 25.8 ± 4.4; CFU-GM/10^5 nucleated BM cells ([1]; BM isolated day 9): 98.5 ± 8.0; CFU-GM per femur ([1]; day 0): 1,101; CFU-GM per femur ([1]; day 3): 321; CFU-GM per femur ([1]; day 6): 80; CFU-GM per femur ([1]; day 9): 482; decrease of the number of cells by Cyp [2]: 52%; Platelets ([3]; day 0): 1,185 ± 101^ ×10^−3/μl; RBCs ([3]; day 0): 9.51 ± 0.70 ×10^−6/μl; WBCs ([3]; day 0): 8.86 ± 0.61 ×10^−3/μl; Platelets ([3]; day 6): 372 ± 57 ×10^−3/μl; RBCs ([3]; day 6): 4.83 ± 0.62 ×10^−6/μl; WBCs ([3]; day 6): 2.79 ± 0.47 ×10^−3/μl; Platelets ([3]; day 10): 746 ± 92 ×10^−3/μl; RBCs ([3]; day 10): 6.88 ± 0.61 ×10^−6/μl; WBCs ([3]; day 10): 6.15 ± 0.45 ×10^−3/μl
